pKi: −log10 of the molar value.
The compounds below were run against 5-hydroxytryptamine receptor 6 (Homo sapiens, UniProt P50406) (assay: Binding affinity against 5-hydroxytryptamine 6 receptor).
Chain of 5-hydroxytryptamine receptor 6 (P50406 whole entry): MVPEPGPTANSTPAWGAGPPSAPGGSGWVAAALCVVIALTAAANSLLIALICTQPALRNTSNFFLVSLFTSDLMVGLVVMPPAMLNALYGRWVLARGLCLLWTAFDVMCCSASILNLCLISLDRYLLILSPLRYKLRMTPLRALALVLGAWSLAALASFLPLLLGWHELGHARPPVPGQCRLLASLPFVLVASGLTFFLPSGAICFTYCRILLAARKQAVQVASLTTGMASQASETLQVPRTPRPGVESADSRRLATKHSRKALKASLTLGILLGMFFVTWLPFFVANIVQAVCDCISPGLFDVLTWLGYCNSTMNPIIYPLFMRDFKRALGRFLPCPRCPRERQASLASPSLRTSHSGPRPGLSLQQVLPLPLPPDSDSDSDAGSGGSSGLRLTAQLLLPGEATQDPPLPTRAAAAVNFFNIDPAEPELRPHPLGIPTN

Row | SMILES | pKi
1 | CN(C)CCc1cn(Cc2ccccc2)c2ccccc12 | 8.22
2 | CCN(CC)CCc1cn(S(=O)(=O)c2ccccc2)c2ccc(OC)cc12 | 8.22
3 | CN(C)CC[N+]1=CCc2ccccc21 | 5.72
4 | CCCc1c(CCN(C)C)c2cc(OC)ccc2n1S(=O)(=O)c1ccccc1 | 8.64
5 | CN(C)CCn1ccc2ccccc21 | < 5.30
6 | CN(C)CCN1CCc2ccccc21 | < 5.30
7 | CN(C)CCC1=CC(Cc2ccccc2)c2ccccc21 (centres undefined) | 8.52
8 | COc1ccc2c(c1)c(CCN(C)C)cn2S(=O)(=O)c1ccccc1 | 8.70
9 | COc1ccc2c(c1)c(CCN(C)C)cn2S(=O)(=O)c1ccc(N)cc1 | 9.22
